The text below walks through data of patent publication US10189880B2, “T cell receptors directed against Bob1 and uses thereof” (LEIDEN UNIVERSITY MEDICAL CENTER, priority 2014, dated 2019).

Several values for one entry are separate records, joined by “and”; a condition that tells them apart may be missing. Equal values may be shown once. Entries after “also recorded” stand apart in the source; their conditions may differ. Read-outs that look alike come from different tables or passages of the source. Bounds are passed on as bounds.

One data set deals with CD3+ΔCD19+ cells. In words: Phase 1 clinical trial of iCasp9 T cells after haploidentical stem cell transplantation. It is filed as in vivo, human. An excerpt: This example presents results of a phase 1 clinical trial using an alternative suicide gene strategy. Briefly, donor peripheral blood mononuclear cells were co-cultured with recipient irradiated EBV-transformed lymphoblastoid cells (40:1) for 72 hrs, allodepleted with a CD25 immunotoxin and then transduced with a retroviral supernatant carrying the iCasp9 suicide gene and a selection marker (ΔCD19); ΔCD19 allowed enrichment to >90% purity via immunomagnetic selection.
Patients developing Grade I GvHD were treated with 0.4 mg/kg AP1903 as a 2-hour infusion. Protocols for administration of AP1903 to patients developing Grade I GvHD were established as follows. Patients developing GvHD after infusion of allodepleted T cells are biopsied to confirm the diagnosis and receive 0.4 mg/kg of AP1903 as a 2 h infusion. […] Patients developing grades 2-4 GvHD were administered standard systemic immunosuppressive therapy per institutional guidelines, in addition to the AP1903 dimerizer drug.
Three patients received iCasp9+ T cells after haplo-CD34+ stem cell transplantation (SCT), at dose levels between about 1×10^6 to about 3×10^6 cells/kg.

Data set [1] can be described thus: AP1903 in vitro effective signaling of cells. It is filed as cell-based. As for the experimental part:
The fixed dose of AP1903 for injection used, for example, may be 0.4 mg/kg intravenously infused over 2 hours. The amount of AP1903 needed in vitro for effective signaling of cells is about 10-100 nM (MW: 1412 Da). This equates to 14-140 μg/L or ˜0.014-0.14 mg/kg ([…]). The dosage may vary according to the application, and may, in certain examples, be more in the range of 0.1-10 nM, or in the range of 50-150 nM, 10-200 nM, 75-125 nM, 100-500 nM, 100-600 nM, 100-700 nM, 100-800 nM, or 100-900 nM. Doses up to 1 mg/kg were well-tolerated in the Phase I study of AP1903 described above.

For data set [2] the following is noted: cited from earlier work.

With `CC[C@H](C(=O)N1CCCC[C@H]1C(=O)O[C@H](CCc1ccc(OC)c(OC)c1)c1cccc(OCC(=O)NCCNC(=O)COc2cccc([C@@H](CCc3ccc(OC)c(OC)c3)OC(=O)[C@@H]3CCCCN3C(=O)[C@@H](CC)c3cc(OC)c(OC)c(OC)c3)c2)c1)c1cc(OC)c(OC)c(OC)c1` (relative stereo) [AP1903, 2-Piperidinecarboxylic acid, 1-[(2S)-1-oxo-2-(3,4,5-trimethoxyphenyl)butyl]-, 1,2-ethanediylbis[imino(2-oxo-2,1-ethanediyl)oxy-3,1-phenylene[(1R)-3-(3,4-dimethoxyphenyl)propylidene]]ester, [2S-[1(R*),2R*[S[S*[1(R*),2R*]]]]]-(9Cl)], the “time to resolution of skin and liver aGvHD” value with CD3+ΔCD19+ cells (after AP1903 administration) was at most 24 h. In addition, the “ablation of CD3+ΔCD19+ cells” value in the data set on CD3+ΔCD19+ cells (within 30 minutes of infusion, patients with grade I/II aGvHD, 0.4 mg/kg) is recorded as above 90%. In addition, the “further reduction of CD3+ΔCD19+ cells” value in the data set on CD3+ΔCD19+ cells (within 24 hours) is “further log reduction”. Also, in data set [1], the “amount needed in vitro for effective signaling of cells” value was in the range of 10 to 100 nM. The “amount needed for effective signaling, converted” value in data set [1] (MW: 1412 Da) fell in the range of 14 to 140 µg/L. Besides, in data set [2] (1.0 mg/kg), the “duration of the adverse event” value was 32 min and the “onset of the adverse event after start of infusion” value is 3 min. Further, the “relation of plasma levels to dose” value in data set [2] (0.01-1.0 mg/kg) is listed as “directly proportional to dose”. The “adverse event considered possibly related to AP1903” value in data set [2] (1 volunteer at the 1.0 mg/kg dosage) is listed as “vasodilatation”. For the same compound, the “plasma level as % of maximal concentration” value in data set [2] (2 hours post-dose) was around 7%. In addition, in data set [2] (10 hours post-dose), the “plasma level as % of maximal concentration” value is around 1%. Moreover, the serious adverse events result in data set [2] (Phase 1 study in volunteers) is on record as “No serious adverse events”. Further, the safety and tolerability result in data set [2] (all dose levels, 0.01 to 1.0 mg/kg) is on record as “well-tolerated; also recorded: No significant adverse effects”. For the same compound, in data set [2] (following each treatment), the “incidence of adverse events” value is “very low”. Also, the “severity of adverse events” value in data set [2] (human, in vivo) was “mild”. In addition, the “mean Cmax / plasma concentrations” value in data set [2] (single IV infusion over 2 hours, 0.01-1.0 mg/kg dose range) was 10 to 1275 ng/mL and 10 ng/mL.
